In patent publication US20260159512A1, “BCAT2 INHIBITORS” (AGIOS PHARMACEUTICALS, INC., priority 2021, published 2026):
“And” between values parts separate entries of the source, which are not always exact repeats. Identical values can stand only once.

What was measured:
[1] = target: T1, BCAT2 (Homo sapiens, UniProt O15382); experiment: BCAT2 in vitro enzyme inhibition assay (resazurin/diaphorase-coupled fluorescence); assay type: biochemical; settings: average where tested multiple times
T1 sequence (O15382 28-392): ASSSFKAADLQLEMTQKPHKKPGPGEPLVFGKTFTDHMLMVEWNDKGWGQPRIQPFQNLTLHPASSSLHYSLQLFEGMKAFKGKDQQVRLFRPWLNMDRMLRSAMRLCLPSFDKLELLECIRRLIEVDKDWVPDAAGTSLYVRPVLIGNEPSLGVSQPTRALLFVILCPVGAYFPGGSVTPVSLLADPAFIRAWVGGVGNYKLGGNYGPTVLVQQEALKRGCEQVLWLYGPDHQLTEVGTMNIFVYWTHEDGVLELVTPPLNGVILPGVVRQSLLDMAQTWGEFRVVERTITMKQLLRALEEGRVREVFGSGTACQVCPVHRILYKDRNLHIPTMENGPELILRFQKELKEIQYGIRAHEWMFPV
Procedure: BCAT2 In Vitro Enzyme Inhibition Assay
1.67× hBCAT2 Enzyme Mix: 0.33 μg/mL hBCAT2, 1× Buffer
2.5× Substrate Mix: 460 μM L-leucine, 420 μM α-KetoGlutarate, 10 U/mL glutamate dehydrogenase, 10 mM NAD, 30 μg/mL diaphorase, 20 μm Resazurin
BCAT2 enzyme stock solution was diluted to prepare a 1.67× hBCAT2 Enzyme Mix. 1 μL of test compound was first added to the reaction wells followed by 30 μL of 1.67× hBCAT2 Enzyme Mix and incubated at room temperature (25° C.) for one hour. Meanwhile the Substrate Mix was prepared. The reaction was initiated by the addition of 20 μL of the 2.5× Substrate Mix, bringing the final reaction mix of all components to 1×. Reactions were quenched after one hour by the addition of 25 μL of 6% SDS and reaction progress was measured via fluorescence read (Ex 540/Em 590).
Test Compound Preparation:
Test compounds were prepared at 50× final concentration in DMSO, 1 to 3 dilutions were made for 10 points. The compounds were added to the assay as a 1 to 50 dilution (1 μL in 50 μL) to yield a top assay final concentration of 100 μM, decreasing 3-fold for 10 points. Each compound dilution series test also included an assay max (1 μL DMSO Added in lieu of compound, Full Reaction Components Included) and Min (1 μL DMSO Added in lieu of compound, 30 μl of 1.67× hBCAT2 Enzyme Mix replated by 30 μL of 1× Buffer). All tests were performed in technical duplicate.
Where a compound was tested multiple times, the average value of the tests is reported.

[2] = target: T1, BCAT2; experiment: BCAT2 in vitro cell inhibition using engineered A549 cells (KMV cell assay, 13C6-KMV by LC-MS/MS); assay type: cell-based; parameters: The result was an engineered A549 cell line that expressed endogenous BCAT2; endogenous in cells; host or cells: A549 cells with MUT and BCAT1 knocked out by CRISPR/CAS9; key to BCAT2 Cell Inhibition: A: less than or equal to 0.100 μM; B: greater than 0.100 and less than or equal to 0.500 μM; C: greater than 0.500 and less than or equal to 1.000 μM; d: greater than 1.000 μM; E: no fit; settings: average where tested multiple times

Row | Compound | IC50 [1] [nM] | BCAT2 Cell Inhibition [2] | IC50 [2]
1 | CC(C)Cc1nc2cnc(-n3nccn3)cc2n1[C@@H]1COC[C@H](NC(=O)c2ccc(Cl)s2)C1 (single isomer, unassigned) [Example 140] | > 1000 | E | –
2 | O=C(N[C@H]1CCC[C@@H](n2c(C3COCCO3)nc3cnc(-c4nc[nH]n4)cc32)C1)c1ncc(Cl)s1 (single isomer, unassigned) [Example 177] | 500 to 1000 | E | –
3 | O=C(N[C@H]1CCC[C@@H](n2c(-c3ccccc3F)nc3cnc(C4CCCO4)cc32)C1)c1ncc(Cl)s1 (single isomer, unassigned) [Example 200] | 500 to 1000 | E | –
4 | O=C(N[C@H]1CCC[C@@H](n2c(-c3ccccc3F)nc3cnc(C4CCCO4)cc32)C1)c1ncc(Cl)s1 (single isomer, unassigned) [Example 201] | 500 to 1000 | E | –
5 | CC(C)Cc1nc2cnc(-c3ccccn3)cc2n1[C@H]1C[C@H](O)C[C@@H](NC(=O)c2ncc(Cl)s2)C1 (single isomer, unassigned) [Example 215] | 500 to 1000 | E | –
6 | O=C(N[C@@H]1C[C@@H](O)C[C@H](n2c(-c3ccccc3F)nc3cnc(-c4ccn[nH]4)cc32)C1)c1ncc(Cl)s1 (single isomer, unassigned) [Example 259] | 100 to 500 | – | > 1000 nM
7 | CO[C@@H]1C[C@@H](NC(=O)c2ncc(Cl)s2)C[C@@H](n2c(-c3ncccc3F)nc3cnc(-c4nc[nH]n4)cc32)C1 (single isomer, unassigned) [Example 443] | > 1000 | E | –
8 | CO[C@H]1C[C@H](NC(=O)c2ncc(Cl)s2)C[C@H](n2c(CC(C)C)nc3cnc(-c4nc[nH]n4)cc32)C1 (stereo in doubt) [Example 413, 5-chloro-N-((1R,3S,5S)-3-(2-isobutyl-6-(1H-1,2,4-triazol-3-yl)-1H-imidazo[4,5-c]pyridin-1-yl)-5-methoxycyclohexyl)thiazole-2-carboxamide] | > 1000 | E | –
9 | CO[C@H]1C[C@H](NC(=O)c2ncc(Cl)s2)C[C@H](n2c(-c3ccccc3F)nc3cnc(-n4cncn4)cc32)C1 (stereo in doubt) [Example 415, 5-chloro-N-((1R,3S,5S)-3-(2-(2-fluorophenyl)-6-(1H-1,2,4-triazol-1-yl)-1H-imidazo[4,5-c]pyridin-1-yl)-5-methoxycyclohexyl)thiazole-2-carboxamide] | > 1000 | E | –
10 | CO[C@@H]1C[C@@H](NC(=O)c2ncc(Cl)s2)C[C@@H](n2c(-c3ncccc3F)nc3cnc(-c4nc[nH]n4)cc32)C1 (stereo in doubt) [Example 444, 5-chloro-N-((1S,3R,5R)-3-(2-(3-fluoropyridin-2-yl)-6-(1H-1,2,4-triazol-3-yl)-1H-imidazo[4,5-c]pyridin-1-yl)-5-methoxycyclohexyl)thiazole-2-carboxamide] | ≤ 100 | – | ≤ 100 nM
11 | CO[C@@H]1C[C@@H](NC(=O)c2ncc(Cl)s2)C[C@@H](n2c(-c3ccccc3C#N)nc3cnc(-c4nc[nH]n4)cc32)C1 (stereo in doubt) [Example 446, 5-chloro-N-((1S,3R,5R)-3-(2-(2-cyanophenyl)-6-(1H-1,2,4-triazol-3-yl)-1H-imidazo[4,5-c]pyridin-1-yl)-5-methoxycyclohexyl)thiazole-2-carboxamide] | ≤ 100 | – | ≤ 100 nM
12 | Cn1ccc(-c2nc3cnc(-n4ccnn4)cc3n2[C@@H]2CCC[C@H](NC(=O)c3ncc(C(F)F)s3)C2)n1 [Example 42, 5-(difluoromethyl)-N-((1S,3R)-3-(2-(1-methyl-1H-pyrazol-3-yl)-6-(1H-1,2,3-triazol-1-yl)-1H-imidazo[4,5-c]pyridin-1-yl)cyclohexyl)thiazole-2-carboxamide] | > 1000 | E | –
13 | O=C(N[C@H]1CCC[C@@H](n2c(CN3CCCCC3)nc3cnc(-n4nccn4)cc32)C1)c1ncc(C(F)F)s1 [Example 95, 5-(difluoromethyl)-N-((1S,3R)-3-(2-(piperidin-1-ylmethyl)-6-(2H-1,2,3-triazol-2-yl)-1H-imidazo[4,5-c]pyridin-1-yl)cyclohexyl)thiazole-2-carboxamide] | > 1000 | E | –
14 | COCCOc1ccccc1-c1nc2cnc(-c3nc[nH]n3)cc2n1[C@@H]1CCC[C@H](NC(=O)c2ncc(Cl)s2)C1 [Example 464, 5-chloro-N-((1S,3R)-3-(2-(2-(2-methoxyethoxy)phenyl)-6-(1H-1,2,4-triazol-3-yl)-1H-imidazo[4,5-c]pyridin-1-yl)cyclohexyl)thiazole-2-carboxamide] | ≤ 100 | – | –

Second part, the molecule after the results:

Row | IC50 [1] [nM] | BCAT2 Cell Inhibition [2] | IC50 [2] | Compound
15 | ≤ 100 | – | 500 to 1000 nM | CC(C)C(O)c1nc2cnc(-c3nc[nH]n3)cc2n1[C@@H]1CCC[C@H](NC(=O)c2ncc(Cl)s2)C1 (single isomer, unassigned) [Example 182]
16 | 100 to 500 | – | > 1000 nM | CO[C@@H]1C[C@@H](NC(=O)c2ncc(Cl)s2)C[C@@H](n2c(-c3ccccc3F)nc3cnc(-c4nc[nH]n4)cc32)C1 (single isomer, unassigned) [Example 219]
17 | ≤ 100 | – | > 1000 nM | CC(C)Cc1nc2cnc(-n3nccn3)cc2n1[C@H]1C[C@H](O)C[C@@H](NC(=O)c2ccc(Cl)s2)C1 (single isomer, unassigned) [Example 396]
18 | > 1000 | E | – | CO[C@@H]1C[C@@H](NC(=O)c2ncc(Cl)s2)C[C@@H](n2c(CC(C)C)nc3cnc(-c4ncc(C)o4)cc32)C1 (single isomer, unassigned) [Example 428]
19 | 500 to 1000 | E | – | CO[C@H]1C[C@@H](NC(=O)c2ncc(Cl)s2)C[C@@H](n2c(CC(C)C)nc3cnc(-n4nccn4)cc32)C1 (single isomer, unassigned) [Example 440]
20 | > 1000 | E | – | CO[C@@H]1C[C@@H](NC(=O)c2ncc(Cl)s2)C[C@@H](n2c(CC(C)(C)C)nc3cnc(-c4ccccn4)cc32)C1 (single isomer, unassigned) [Example 441]
21 | > 1000 | – | > 1000 nM | CC(C)Cc1nc2cnc(-c3cccc(F)n3)cc2n1[C@@H]1C[C@@H](O)C[C@H](NC(=O)c2ncc(Cl)s2)C1 (stereo in doubt) [Example 384, 5-chloro-N-((1R,3S,5S)-3-(6-(6-fluoropyridin-2-yl)-2-isobutyl-1H-imidazo[4,5-c]pyridin-1-yl)-5-hydroxycyclohexyl)thiazole-2-carboxamide]
22 | 100 to 500 | – | > 1000 nM | CO[C@H]1C[C@H](NC(=O)c2ccc(Cl)s2)C[C@H](n2c(-c3ccccc3F)nc3cnc(-c4nc[nH]n4)cc32)C1 (stereo in doubt) [Example 411, 5-chloro-N-((1R,3S,5S)-3-(2-(2-fluorophenyl)-6-(1H-1,2,4-triazol-3-yl)-1H-imidazo[4,5-c]pyridin-1-yl)-5-methoxycyclohexyl)thiophene-2-carboxamide]
23 | ≤ 100 | – | ≤ 100 nM and 100 to 500 nM | CO[C@@H]1C[C@H](NC(=O)c2ncc(Cl)s2)C[C@H](n2c(-c3ccccc3F)nc3cnc(-c4nc[nH]n4)cc32)C1 (stereo in doubt) [Example 419, 5-chloro-N-((1R,3S,5R)-3-(2-(2-fluorophenyl)-6-(1H-1,2,4-triazol-3-yl)-1H-imidazo[4,5-c]pyridin-1-yl)-5-methoxycyclohexyl)thiazole-2-carboxamide]
24 | 500 to 1000 | – | > 1000 nM | CO[C@@H]1C[C@H](NC(=O)c2ncc(Cl)s2)C[C@H](n2c(CC(C)C)nc3cnc(-c4nc[nH]n4)cc32)C1 (stereo in doubt) [Example 431, 5-chloro-N-((1R,3S,5R)-3-(2-isobutyl-6-(1H-1,2,4-triazol-3-yl)-1H-imidazo[4,5-c]pyridin-1-yl)-5-methoxycyclohexyl)thiazole-2-carboxamide]
